Experimental data: patent US20220016101A1 (ACADIA Pharmaceuticals Inc., priority 2018, published 2022)

Tested on: patients with MDD and an inadequate response to an SSRI or SNRI
Test: Massachusetts General Hospital Sexual Functioning Index (MGH-SFI), Study ACP-103-042
Assay type: in vivo, human
Design: key to MGH-SFI Ability to Get Sexually Aroused or Excited, treatment effect size / MGH-SFI Ability to Achieve Orgasm, treatment effect size / MGH-SFI Overall Sexual Satisfaction, treatment effect size: Cohen's d = LS mean difference (PIM vs PBO) / SD
Description: “Massachusetts General Hospital Sexual Functioning Index (MGH-SFI)” is described, for instance, in Labbate and Lare, 2001, Psychother Psychosom. 70(4):221-225. This is a patient facing questionnaire that quantifies sexual dysfunction into 5 functional domains (“interest in sex,” “sexual arousal,” “ability to achieve orgasm,” “ability to maintain erection” (males only), and “sexual satisfaction”). Patients rate each item using a 6-point scale ranging from 1 (good function) to 6 (poor function). High scores indicate poor sexual functioning. […] The determination of the subject's status and eligibility for randomization in Stage 2 was made in a double-blind manner. […] Sexual functioning was assessed using the Massachusetts General Hospital Sexual Functioning Index or MGH-SFI (Labbate and Lare, 2001, Psychother Psychosom. 70(4):221-225). This is a patient facing questionnaire that quantifies sexual dysfunction into 5 functional domains (“interest in sex,” “sexual arousal,” “ability to achieve orgasm,” “ability to maintain erection” [malesonly], and “sexual satisfaction”). Patients rate each item using a 6-point scale ranging from 1 (good function) to 6 (poor function). The time frame for this scale is the past month. This scale was administered at baseline and Week 5 in both stages of the study. High scores indicate poor sexual functioning. In ACP-103-042 the mean scores for MGH-SFI at Baseline was calculated over all 5 domains for males and the 4 domains for females. For MGH-SFI (follow-up version) at Study Weeks 5 and 10, the mean was calculated in the same way as MGH-SFI at Baseline. […] Tables 10-27 summarize the detailed data of MGH-SFI individual items of the overall study group (Tables 10-15), the subgroup of age of <=50 (Tables 16-21) and the subgroup of age of >50 (Table 21-26). In Tables 9-26, ANCOVA=analysis of covariance; OC=observed cases; LSM=least squares mean; CI=confidence interval; SD=standard deviation; SE=standard error. Stage 1: Baseline=Study Week 0, Week 5=Study Week 5; Stage 2: Baseline=Study Week 5, Week 5=Study Weeks 10. LSM from the stage-specific ANCOVA analysis with the change from baseline as the outcome, treatment group as a factor, and the corresponding Baseline value as a covariate. 2-sided p-value for treatment difference from the stage-specific ANCOVA analysis. An treatment effect size (Cohen's d) is calculated using the formula: Effect Size=Least Square mean difference between PIM and PBO/SD. The corresponding 95% confidence interval for an effect size is calculated based on the theoretical probability distribution of the effect size. […] Tables 10-15 and 28-38 summarize the detailed data of MGH-SFI individual items of the overall study group (Tables 10-15), the female subgroup (Tables 33-37) and the male subgroup (Table 38-43). An treatment effect size (Cohen's d) is calculated using the formula: Effect Size=Least Square mean difference between PIM and PBO/SD. The corresponding 95% confidence interval for an effect size is calculated based on the theoretical probability distribution of the effect size. In Tables 10-15 and 28-38, ANCOVA=analysis of covariance; OC=observed cases; LSM=least squares mean; CI=confidence interval; SD=standard deviation; SE=standard error. Stage 1: Baseline=Study Week 0, Week 5=Study Week 5; Stage 2: Baseline=Study Week 5, Week 5=Study Weeks 10. LSM from the stage-specific ANCOVA analysis with the change from baseline as the outcome, treatment group as a factor, and the corresponding Baseline value as a covariate. 2-sided p-value for treatment difference from the stage-specific ANCOVA analysis. An treatment effect size (Cohen's d) is calculated using the formula: Effect Size=Least Square mean difference between PIM and PBO/SD. The corresponding 95% confidence interval for an effect size is calculated based on the theoretical probability distribution of the effect size.

[1] = Stage 1, Overall Study Group, 34 mg QD + SSRI/SNRI
[2] = Stage 1, Subgroup of <=50 Years
[3] = Stage 1, Subgroup of <=50 Years Old
[4] = Stage 1, Subgroup of <=50 Years Old, 34 mg QD + SSRI/SNRI

SMILES: CC(C)COc1ccc(CNC(=O)N(Cc2ccc(F)cc2)C2CCN(C)CC2)cc1 [pimavanserin, N-(4-Fluorophenylmethyl)-N-(1-methylpiperidin-4-yl)-N′-(4-(2-methylpropyloxy)phenylmethyl)carbamide]
- MGH-SFI Items mean change stratified by age >50 or ≤50 years vs placebo (Stage 1): differences were only significant for the age >50 years subgroup
- MGH-SFI treatment effect size for pimavanserin compared to placebo (Stage 1): 0.614
- MGH-SFI 01: Interest in Sex, Change from Baseline to Week 5 Mean (SE) (Stage 1, Overall Study Group): −0.9 (0.23)
- MGH-SFI 01: Interest in Sex, Change from Baseline to Week 5 Median (Stage 1, Overall Study Group): −1.0
- MGH-SFI 01: Interest in Sex, Effect Size (Cohen's d) (Stage 1, Overall Study Group): 0.483
- MGH-SFI 01: Interest in Sex, Week 5 Median (Stage 1, Overall Study Group): 4.0
- MGH-SFI 02: Ability to Get Sexually Aroused or Excited, Change from Baseline to Week 5 Mean (SE) (Stage 1, Overall Study Group): −0.8 (0.17)
- MGH-SFI 02: Ability to Get Sexually Aroused or Excited, Change from Baseline to Week 5 Median (Stage 1, Overall Study Group): −1.0
- MGH-SFI 02: Ability to Get Sexually Aroused or Excited, Effect Size (Cohen's d) (Stage 1, Overall Study Group): 0.560
- MGH-SFI 02: Ability to Get Sexually Aroused or Excited, Week 5 Median (Stage 1, Overall Study Group): 4.0
- MGH-SFI 03: Ability to Achieve Orgasm, Change from Baseline to Week 5 Mean (SE) (Stage 1, Overall Study Group): −1.0 (0.24)
- MGH-SFI 03: Ability to Achieve Orgasm, Change from Baseline to Week 5 Median (Stage 1, Overall Study Group): 0.0
- MGH-SFI 03: Ability to Achieve Orgasm, Effect Size (Cohen's d) (Stage 1, Overall Study Group): 0.609
- MGH-SFI 03: Ability to Achieve Orgasm, Week 5 Median (Stage 1, Overall Study Group): 4.0
- MGH-SFI 04: (Men) Ability to Get and Maintain an Erection, Change from Baseline to Week 5 Mean (SE) (Stage 1, Overall Study Group): −0.3 (0.78)
- MGH-SFI 04: (Men) Ability to Get and Maintain an Erection, Change from Baseline to Week 5 Median (Stage 1, Overall Study Group): 0.0
- MGH-SFI 04: (Men) Ability to Get and Maintain an Erection, Effect Size (Cohen's d) (Stage 1, Overall Study Group): 0.105
- MGH-SFI 04: (Men) Ability to Get and Maintain an Erection, Week 5 Median (Stage 1, Overall Study Group): 3.0
- MGH-SFI 05: Overall Sexual Satisfaction, Change from Baseline to Week 5 Mean (SE) (Stage 1, Overall Study Group): −0.8 (0.25)
- MGH-SFI 05: Overall Sexual Satisfaction, Change from Baseline to Week 5 Median (Stage 1, Overall Study Group): 0.0
- MGH-SFI 05: Overall Sexual Satisfaction, Effect Size (Cohen's d) (Stage 1, Overall Study Group): 0.524
- MGH-SFI 05: Overall Sexual Satisfaction, Week 5 Median (Stage 1, Overall Study Group): 4.0
- MGH-SFI 06: Overall Improvement Since Last Medication Change, Effect Size (Cohen's d) (Stage 1, Overall Study Group): 0.539
- MGH-SFI 06: Overall Improvement Since Last Medication Change, Week 5 Median (Stage 1, Overall Study Group): 4.0
- MGH-SFI 01: Interest in Sex, Week 5 Mean (SE) [1]: 3.8 (0.27)
- MGH-SFI 02: Ability to Get Sexually Aroused or Excited, Week 5 Mean (SE) [1]: 3.7 (0.26)
- MGH-SFI 03: Ability to Achieve Orgasm, Week 5 Mean (SE) [1]: 3.8 (0.26)
- MGH-SFI 04: (Men) Ability to Get and Maintain an Erection, Week 5 Mean (SE) [1]: 3.9 (0.70)
- MGH-SFI 05: Overall Sexual Satisfaction, Week 5 Mean (SE) [1]: 3.9 (0.27)
- MGH-SFI 06: Overall Improvement Since Last Medication Change, Week 5 Mean (SE) [1]: 3.2 (0.17)
- MGH-SFI 01: Interest in Sex, Change from Baseline to Week 5 Mean (SE) [2]: −0.7 (0.45)
- MGH-SFI 01: Interest in Sex, Change from Baseline to Week 5 Median [2]: 0.0
- MGH-SFI 01: Interest in Sex, Effect Size (Cohen's d) [2]: 0.347
- MGH-SFI 01: Interest in Sex, Week 5 Median [2]: 3.0
- MGH-SFI 02: Ability to Get Sexually Aroused or Excited, Change from Baseline to Week 5 Mean (SE) [3]: −0.5 (0.27)
- MGH-SFI 02: Ability to Get Sexually Aroused or Excited, Change from Baseline to Week 5 Median [3]: 0.0
- MGH-SFI 02: Ability to Get Sexually Aroused or Excited, Effect Size (Cohen's d) [3]: 0.447
- MGH-SFI 02: Ability to Get Sexually Aroused or Excited, Week 5 Median [3]: 3.0
- MGH-SFI 03: Ability to Achieve Orgasm, Change from Baseline to Week 5 Mean (SE) [3]: −0.8 (0.36)
- MGH-SFI 03: Ability to Achieve Orgasm, Change from Baseline to Week 5 Median [3]: 0.0
- MGH-SFI 03: Ability to Achieve Orgasm, Effect Size (Cohen's d) [3]: 0.352
- MGH-SFI 03: Ability to Achieve Orgasm, Week 5 Median [3]: 4.0
- MGH-SFI 02: Ability to Get Sexually Aroused or Excited, Week 5 Mean (SE) [4]: 3.4 (0.42)
- MGH-SFI 03: Ability to Achieve Orgasm, Week 5 Mean (SE) [4]: 3.8 (0.42)
- MGH-SFI 01: Interest in Sex, Week 5 Mean (SE) (Stage 1, Subgroup of <=50 Years, 34 mg QD + SSRI/SNRI): 3.5 (0.45)
- MGH-SFI Ability to Achieve Orgasm, treatment effect size (Stage 1, female subgroup): 0.749
- MGH-SFI Ability to Get Sexually Aroused or Excited, treatment effect size (Stage 1, female subgroup): 0.616
- MGH-SFI Interest in Sex, treatment effect size (Stage 1, female subgroup): 0.561
- MGH-SFI Overall Improvement Since Last Medication Change, treatment effect size (Stage 1, female subgroup): 0.634
- MGH-SFI Overall Sexual Satisfaction, treatment effect size (Stage 1, female subgroup): 0.627
- MGH-SFI effects vs placebo when assessed by MDD remission status (Stage 1, patients with or without remission): robust and significant effects
- MGH-SFI treatment effect size for pimavanserin compared to placebo (Stage 2): 0.412
- MGH-SFI 01: Interest in Sex, Change from Baseline to Week 5 Mean (SE) (Stage 2, Overall Study Group): −0.4 (0.16)
- MGH-SFI 01: Interest in Sex, Change from Baseline to Week 5 Median (Stage 2, Overall Study Group): 0.0
- MGH-SFI 01: Interest in Sex, Effect Size (Cohen's d) (Stage 2, Overall Study Group): 0.227
- MGH-SFI 01: Interest in Sex, Week 5 Median (Stage 2, Overall Study Group): 4.0
- MGH-SFI 02: Ability to Get Sexually Aroused or Excited, Change from Baseline to Week 5 Mean (SE) (Stage 2, Overall Study Group): −0.4 (0.16)
- MGH-SFI 02: Ability to Get Sexually Aroused or Excited, Change from Baseline to Week 5 Median (Stage 2, Overall Study Group): 0.0
- MGH-SFI 02: Ability to Get Sexually Aroused or Excited, Effect Size (Cohen's d) (Stage 2, Overall Study Group): −0.025
- MGH-SFI 02: Ability to Get Sexually Aroused or Excited, Week 5 Median (Stage 2, Overall Study Group): 4.5
- MGH-SFI 03: Ability to Achieve Orgasm, Change from Baseline to Week 5 Mean (SE) (Stage 2, Overall Study Group): −0.4 (0.18)
- MGH-SFI 03: Ability to Achieve Orgasm, Change from Baseline to Week 5 Median (Stage 2, Overall Study Group): 0.0
- MGH-SFI 03: Ability to Achieve Orgasm, Effect Size (Cohen's d) (Stage 2, Overall Study Group): 0.300
- MGH-SFI 03: Ability to Achieve Orgasm, Week 5 Median (Stage 2, Overall Study Group): 5.0
- MGH-SFI 04: (Men) Ability to Get and Maintain an Erection, Change from Baseline to Week 5 Mean (SE) (Stage 2, Overall Study Group): −1.0 (0.41)
- MGH-SFI 04: (Men) Ability to Get and Maintain an Erection, Change from Baseline to Week 5 Median (Stage 2, Overall Study Group): −1.0
- MGH-SFI 04: (Men) Ability to Get and Maintain an Erection, Effect Size (Cohen's d) (Stage 2, Overall Study Group): 0.701
- MGH-SFI 04: (Men) Ability to Get and Maintain an Erection, Week 5 Median (Stage 2, Overall Study Group): 4.0
- MGH-SFI 05: Overall Sexual Satisfaction, Change from Baseline to Week 5 Mean (SE) (Stage 2, Overall Study Group): −0.7 (0.25)
- MGH-SFI 05: Overall Sexual Satisfaction, Change from Baseline to Week 5 Median (Stage 2, Overall Study Group): −0.5
